Results reported in the supplement of paper PMC11451515.

Tested on: NOMO1
Test: cell viability relative to DMSO control; higher = less cytotoxic
Conditions: 48 h
In short: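 NOMO1, SEM and P12-Ichikawa leukemia cells spent at least four passages adapting to each medium before use. They were seeded at 500 cells/well (NOMO1, SEM) or 1000 cells/well (P12-Ichikawa) in 5 μl in 1536-well plates and pin-dosed with library compounds in DMSO at 11 threefold steps from 47 μM down to 0.79 nM. After 48 h at 37°C, CellTiter-Glo One luminescence was read. Viability is reported as a percentage of the DMSO wells on each plate, with cell-free wells as background.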

[1] = HPLM + 10% dialyzed FBS, 0.000781 µM
[2] = HPLM + 10% dialyzed FBS, 0.00234 µM
[3] = HPLM + 10% dialyzed FBS, 0.00702 µM
[4] = HPLM + 10% dialyzed FBS, 0.0211 µM
[5] = HPLM + 10% dialyzed FBS, 0.0632 µM
[6] = HPLM + 10% dialyzed FBS, 0.19 µM
[7] = HPLM + 10% dialyzed FBS, 0.569 µM
[8] = HPLM + 10% dialyzed FBS, 1.71 µM
[9] = HPLM + 10% dialyzed FBS, 5.12 µM
[10] = HPLM + 10% dialyzed FBS, 15.4 µM
[11] = HPLM + 10% dialyzed FBS, 46.1 µM
[12] = RPMI 5 mM glucose + 10% FBS, 0.000781 µM
[13] = RPMI 5 mM glucose + 10% FBS, 0.00234 µM
[14] = RPMI 5 mM glucose + 10% FBS, 0.00702 µM
[15] = RPMI 5 mM glucose + 10% FBS, 0.0211 µM
[16] = RPMI 5 mM glucose + 10% FBS, 0.0632 µM
[17] = RPMI 5 mM glucose + 10% FBS, 0.19 µM
[18] = RPMI 5 mM glucose + 10% FBS, 0.569 µM
[19] = RPMI 5 mM glucose + 10% FBS, 1.71 µM
[20] = RPMI 5 mM glucose + 10% FBS, 5.12 µM
[21] = RPMI 5 mM glucose + 10% FBS, 15.4 µM
[22] = RPMI 5 mM glucose + 10% FBS, 46.1 µM
[23] = RPMI 5 mM glucose + 10% dialyzed FBS, 0.000781 µM
[24] = RPMI 5 mM glucose + 10% dialyzed FBS, 0.00234 µM
[25] = RPMI 5 mM glucose + 10% dialyzed FBS, 0.00702 µM
[26] = RPMI 5 mM glucose + 10% dialyzed FBS, 0.0211 µM
[27] = RPMI 5 mM glucose + 10% dialyzed FBS, 0.0632 µM
[28] = RPMI 5 mM glucose + 10% dialyzed FBS, 0.19 µM
[29] = RPMI 5 mM glucose + 10% dialyzed FBS, 0.569 µM
[30] = RPMI 5 mM glucose + 10% dialyzed FBS, 1.71 µM
[31] = RPMI 5 mM glucose + 10% dialyzed FBS, 5.12 µM
[32] = RPMI 5 mM glucose + 10% dialyzed FBS, 15.4 µM
[33] = RPMI 5 mM glucose + 10% dialyzed FBS, 46.1 µM

| SMILES | cell viability [1] | cell viability [2] | cell viability [3] | cell viability [4] | cell viability [5] | cell viability [6] | cell viability [7] | cell viability [8] | cell viability [9] | cell viability [10] | cell viability [11] | cell viability [12] | cell viability [13] | cell viability [14] | cell viability [15] | cell viability [16] | cell viability [17] | cell viability [18] | cell viability [19] | cell viability [20] | cell viability [21] | cell viability [22] | cell viability [23] | cell viability [24] | cell viability [25] | cell viability [26] | cell viability [27] | cell viability [28] | cell viability [29] | cell viability [30] | cell viability [31] | cell viability [32] | cell viability [33] |
| --- | --- | --- | --- | --- | --- | --- | --- | --- | --- | --- | --- | --- | --- | --- | --- | --- | --- | --- | --- | --- | --- | --- | --- | --- | --- | --- | --- | --- | --- | --- | --- | --- | --- |
| COc1cc(OC)c(NC(=O)Nc2cc(C)on2)cc1Cl | 97.6% | 96.4% | 100% | 106% | 106% | 84.4% | 119% | 114% | 100% | 105% | 96.9% | 83.5% | 96.7% | 85.2% | 92.7% | 93.8% | 97.9% | 93.9% | 91% | 90.1% | 88.7% | 99.5% | 86.8% | 83.8% | 81.3% | 85.6% | 97.3% | 89.4% | 98% | 79.7% | 83% | 88.1% | 88.3% |
| O=C1CCc2ccc(OCCCCN3CCN(c4cccc(Cl)c4Cl)CC3)cc2N1 | 115% | 98.6% | 119% | 77.7% | 96.1% | 109% | 89.2% | 91.6% | 106% | 107% | 85.1% | 91.2% | 91.7% | 94.7% | 86.6% | 92.9% | 89.5% | 96.6% | 97.2% | 81.6% | 93.6% | 77.6% | 106% | 83.6% | 97.7% | 75.2% | 96.1% | 93.6% | 91.5% | 98.1% | 91.1% | 97.5% | 78.7% |
| COc1ccc(Nc2cc(-c3cnc(N)nc3)nc(N3CCOCC3)n2)cn1 | 105% | 105% | 84.5% | 97.2% | 83.3% | 87% | 76.6% | 79.9% | 54.7% | 46.8% | 39.6% | 82.6% | 90.2% | 88.2% | 84.4% | 83.4% | 88% | 78.4% | 84.8% | 60.5% | 65.4% | 52.7% | 86.8% | 91.8% | 85.3% | 88% | 91.6% | 76.8% | 71.3% | 75.1% | 56.4% | 56.8% | 44.5% |
| CCCCCCCCCCCCCCCCCCOP(=O)([O-])OC1CC[N+](C)(C)CC1 | 93.4% | 114% | 94.8% | 114% | 110% | 120% | 114% | 107% | 107% | 98.4% | 99% | 90.5% | 105% | 113% | 121% | 98.5% | 113% | 120% | 105% | 110% | 93.8% | 96.4% | 96.6% | 107% | 105% | 103% | 100% | 118% | 110% | 102% | 106% | 93.2% | 84.7% |
| O=c1[nH]cnc2c1ncn2[C@H]1CC[C@@H](CO)O1 | 91.5% | 91.9% | 118% | 97.9% | 93.2% | 88.8% | 98.6% | 100% | 107% | 71.9% | 55% | 78.5% | 88.5% | 93.2% | 94.7% | 87.7% | 87.7% | 101% | 90.4% | 94.4% | 85.5% | 48.4% | 75.4% | 92.5% | 97.8% | 94.5% | 95.1% | 83.5% | 92.8% | 97.3% | 103% | 89% | 57.1% |
| NC(=O)c1cccc(N)c1 | 116% | 107% | 119% | 114% | 135% | 134% | 124% | 130% | 126% | 125% | 101% | 97% | 104% | 114% | 120% | 104% | 123% | 105% | 97.8% | 109% | 113% | 127% | 102% | 104% | 114% | 116% | 109% | 133% | 116% | 110% | 112% | 106% | 115% |
| CN(C)c1ccc2cc(C(=O)N[C@@H](CCCNC(=N)CCl)C(=O)NCc3ccccc3)ccc2c1 | 108% | 128% | 108% | 121% | 125% | 107% | 112% | 112% | 106% | 87.2% | 14% | 92% | 119% | 104% | 96.3% | 98.5% | 102% | 97% | 98.6% | 100% | 85.4% | 8.34% | 114% | 109% | 103% | 110% | 111% | 119% | 115% | 105% | 105% | 98.7% | 12.5% |
| CC(C)(C)NC(=O)[C@@H]1CN(Cc2cccnc2)CCN1C[C@@H](O)C[C@@H](Cc1ccccc1)C(=O)N[C@H]1c2ccccc2C[C@H]1O.O=S(=O)(O)O | 103% | 122% | 111% | 108% | 117% | 105% | 106% | 127% | 122% | 130% | 90.9% | 112% | 112% | 128% | 128% | 120% | 119% | 132% | 136% | 133% | 130% | 107% | 99.5% | 117% | 123% | 116% | 120% | 119% | 125% | 155% | 145% | 136% | 98% |
